In patent publication US6503943B1, “Platinum complex, its preparation and therapeutic application” (priority 1998, dated 2003):
Several values for one entry are separate records, joined by “and”; a condition that tells them apart may be missing. Equal values may be shown once.

Assays:
leucaemia L1210 [1] = test: Antitumor effect at animals with leucaemia L1210, continual versus intermitent regimen (Example 6); type: in vivo, mice DBA2; settings: for Survival (in % of control) / Survival time, Geom. mean: 1st day
[2] = system: mammal adenocarcinoma MC2111; test: Antitumor effect at animals with solid form of mammal adenocarcinoma MC2111 (Example 9); type: in vivo, mice DBA1; settings: for Tumor mass (%) of control / Tumor mass, Arithm. mean: 5th day, tumor size 14th day, mass from regression
[3] = system: ascitic form of Ehrlich tumor (ATE); test: Antitumor effect at animals with ascitic form of Ehrlich tumor (ATE) (Example 10); type: in vivo, mice ICR; settings: for Survival (in % of control) / Survival time, Geom. mean / Tumor mass (%) of control / Tumor mass, Arithm. mean: 1st day; for Tumor mass (%) of control / Tumor mass, Arithm. mean: dissection 10th day
leucaemia L1210 [4] = test: Antitumor effect at animals with leucaemia L1210, single administration (Example 4); type: in vivo, mice DBA2; settings: for Survival (in % of control) / Survival time, Geom. mean: 1st day
leucaemia L1210 [5] = test: Antitumor effect at animals with leucaemia L1210, continual regimen (Example 7); type: in vivo, mice DBA2
[6] = system: ascitic form of Ehrlich tumor (ATE); test: Antitumor effect at animals with ascitic form of Ehrlich tumor (ATE) (Example 11);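 as to all read-outs here: half of each dose group killed on day 10, tumor mass taken as animal mass lost on ascites aspiration, ascitocrit by microhematocrit centrifuge, rest followed daily for survival versus reference group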; settings: for Survival (in % of control) / Survival time, Geom. mean / Total ascitocrit (%) of control / Total ascitocrit (mass of cell fraction of a tumor), Arithm. mean / Tumor mass (%) of control / Tumor mass, Arithm. mean: 1st day; for Total ascitocrit (%) of control / Total ascitocrit (mass of cell fraction of a tumor), Arithm. mean / Tumor mass (%) of control / Tumor mass, Arithm. mean: dissection 10th day
Method: After termination of application, one half of animals in each dosage group was destroyed at 10th day after inoculation in ether narcosis, the ascits were sucked out after laparotomy and the mass of a tumor at each of the animals was determined from the difference of mass before and after sucking out the ascit. Ascitocrit in ascitic liquor of single animals was determined on microhematocrit centrifuge in heparinized capillary tubes of 75 mm length. The value of “total ascitocrit”corresponding to a mass of cells in ascitic liquor has been determined from percentage of ascitocrit and mass of the tumor. Remaining animals were left for monitoring the survival time. In these animals, the survival time was monitored on daily basis. The dependence of the survival time value on the applied dose was evaluated in comparison with the reference group.
The single estimated time points as biological responses were evaluated by a test of equivalence of two mean values (Student's t-test). Geometric mean was calculated from single values of survival time, arithmetic means were calculated from single values of tumor mass and total ascitocrit. Difference between mean values was evaluated by a test of equivalence of two mean values (Student's t-test) under presumption of normal probability distribution of mass values as well as of total ascitocrit values and of logarithmic/normal distribution of temporal values, all under presumption of possible unknown disseminations. Those diferences in mean values, whose values of a test criterium exceeded the critical value at the 5% and 1% significance level were evaluated as statistically significant and highly statistically significant, respectively.
The optimum dosage has been calculated from values of survival time according to the proportional risk model of Cox (Carter et al., 1982). Parameters of Weinbull distribution and logarithmic transformation of introductory data were used for estimation of a basic and modified survival function from experimental data.

leucaemia L1210 [7] = test: Antitumor effect at animals with leucaemia L1210, intermitent administration 3x (Example 5); type: in vivo, mice DBA2; settings: 1st, 5th and 9th day
Gardner lymphosarcoma = test: Antitumor effect at animals with solid form of Gardner lymphosarcoma (Example 8); type: in vivo, mice C3H; settings: 5th day, tumors weighed 14th day

N.N.[Cl][Pt][Cl] [Platidiam, cis-diammin-dichloroplatinum(II) complex]
Survival (in % of control) (leucaemia L1210 [1]; 2 mg/kg s.c. 1x): 155%
Survival time, Geom. mean (leucaemia L1210 [1]; 2 mg/kg s.c. 1x): 17.9 days
Survival (in % of control) (leucaemia L1210 [1]; 4 mg/kg s.c. 1x): 174%
Survival time, Geom. mean (leucaemia L1210 [1]; 4 mg/kg s.c. 1x): 20.2 days
Survival (in % of control) (leucaemia L1210 [1]; 8 mg/kg s.c. 1x): 204%
Survival time, Geom. mean (leucaemia L1210 [1]; 8 mg/kg s.c. 1x): 23.7 days
Evaluation of antitumor effect (survival time versus control), in words (leucaemia L1210 [1]; LA-12 6 mg/kg p.o.×9, Platidiam 8 and 4 mg/kg s.c.×1, LA-2 any of the dosage groups): antitumor effective
Tumor mass (%) of control ([2]; 4 mg/kg s.c. 1x): 76%
Tumor mass, Arithm. mean ([2]; 4 mg/kg s.c. 1x): 3.53 g
Tumor mass (%) of control ([2]; 8 mg/kg s.c. 1x): 69%
Tumor mass, Arithm. mean ([2]; 8 mg/kg s.c. 1x): 3.20 g
LTS - Long Term Survivors; the amount of animals destroyed at 120th day ([2]; mouse, in vivo): 1/10
Survival (in % of control) ([2]; mouse, in vivo): >162 2) % and >158 1) %
Survival time, Geom. mean ([2]; mouse, in vivo): 35.1 days and 34.3 days
Evaluation of antitumor effect, in words ([2]; p.o.×9 12, 6, 3 mg/kg/day, Platidiam 8 and 4 mg/kg s.c. once): antitumor effective
Survival (in % of control) ([3]; 2 mg/kg s.c. 1x): 120%
Survival time, Geom. mean ([3]; 2 mg/kg s.c. 1x): 13.8 days
Tumor mass (%) of control ([3]; 2 mg/kg s.c. 1x): 115%
Tumor mass, Arithm. mean ([3]; 2 mg/kg s.c. 1x): 3.06 g
Survival (in % of control) ([3]; 4 mg/kg s.c. 1x): 190%
Survival time, Geom. mean ([3]; 4 mg/kg s.c. 1x): 21.8 days
Tumor mass (%) of control ([3]; 4 mg/kg s.c. 1x): 101%
Tumor mass, Arithm. mean ([3]; 4 mg/kg s.c. 1x): 2.68 g
Survival (in % of control) ([3]; 8 mg/kg s.c. 1x): 184%
Survival time, Geom. mean ([3]; 8 mg/kg s.c. 1x): 21.0 days
Tumor mass (%) of control ([3]; 8 mg/kg s.c. 1x): 82%
Tumor mass, Arithm. mean ([3]; 8 mg/kg s.c. 1x): 2.16 g
Significance of mean survival time increase in comparison with untreated control (p≦0.01), in words ([3]; Tab. 7-2): atatistically highly significant
Survival (in % of control) (leucaemia L1210 [4]; 2.5 mg/kg s.c. 1x): 112%
Survival time, Geom. mean (leucaemia L1210 [4]; 2.5 mg/kg s.c. 1x): 14.2 days
Survival (in % of control) (leucaemia L1210 [4]; 5 mg/kg s.c. 1x): >132%
Survival time, Geom. mean (leucaemia L1210 [4]; 5 mg/kg s.c. 1x): 16.7 days
Increase of mean value of survival time against the control (leucaemia L1210 [4]; 5 mg/kg s.c., single, not statistically significant): 32%
Survival (in % of control) (leucaemia L1210 [4]; 10 mg/kg s.c. 1x): 48%
Survival time, Geom. mean (leucaemia L1210 [4]; 10 mg/kg s.c. 1x): 6.1 days
LTS - Long Term Survivors (amount of surviving animals in a group) (leucaemia L1210 [5]; 4 mg/kg s.c. 1x, 1st day): 5/10
Survival (in % of control) (leucaemia L1210 [5]; 4 mg/kg s.c. 1x, 1st day): >223%
Survival time, Geom. mean (leucaemia L1210 [5]; 4 mg/kg s.c. 1x, 1st day): 50.2 days
Increase of survival time value in comparison with the control group (leucaemia L1210 [5]; 4 mg/kg s.c.×1): 123%
Survival (in % of control) ([6]; 2 mg/kg s.c. 1x): 128%
Survival time, Geom. mean ([6]; 2 mg/kg s.c. 1x): 11.4 days
Total ascitocrit (%) of control ([6]; 2 mg/kg s.c. 1x): 115%
Total ascitocrit (mass of cell fraction of a tumor), Arithm. mean ([6]; 2 mg/kg s.c. 1x): 0.79 g
Tumor mass (%) of control ([6]; 2 mg/kg s.c. 1x): 72%
Tumor mass, Arithm. mean ([6]; 2 mg/kg s.c. 1x): 2.83 g
Survival (in % of control) ([6]; 4 mg/kg s.c. 1x): 197%
Survival time, Geom. mean ([6]; 4 mg/kg s.c. 1x): 17.5 days
Total ascitocrit (%) of control ([6]; 4 mg/kg s.c. 1x): 116%
Total ascitocrit (mass of cell fraction of a tumor), Arithm. mean ([6]; 4 mg/kg s.c. 1x): 0.80 g
Tumor mass (%) of control ([6]; 4 mg/kg s.c. 1x): 90%
Tumor mass, Arithm. mean ([6]; 4 mg/kg s.c. 1x): 3.53 g
Survival (in % of control) ([6]; 8 mg/kg s.c. 1x): 208%
Survival time, Geom. mean ([6]; 8 mg/kg s.c. 1x): 18.5 days
Total ascitocrit (%) of control ([6]; 8 mg/kg s.c. 1x): 100%
Total ascitocrit (mass of cell fraction of a tumor), Arithm. mean ([6]; 8 mg/kg s.c. 1x): 0.68 g
Tumor mass (%) of control ([6]; 8 mg/kg s.c. 1x): 60%
Tumor mass, Arithm. mean ([6]; 8 mg/kg s.c. 1x): 2.36 g
Evaluation of antitumor effect (survival time versus control), in words ([6]; p.o.×9, Platidiam 8 and 4 mg/kg s.c.×1, Tab. 8.1): antitumor effective
Survival (in % of control) (leucaemia L1210 [7]; 1 mg/kg/day s.c. 3x): 178%
Survival time, Geom. mean (leucaemia L1210 [7]; 1 mg/kg/day s.c. 3x): 28.0 days
Survival (in % of control) (leucaemia L1210 [7]; 2 mg/kg/day s.c. 3x): 168%
Survival time, Geom. mean (leucaemia L1210 [7]; 2 mg/kg/day s.c. 3x): 26.3 days
Survival (in % of control) (leucaemia L1210 [7]; 4 mg/kg/day s.c. 3x): 106%
Survival time, Geom. mean (leucaemia L1210 [7]; 4 mg/kg/day s.c. 3x): 16.6 days
Tumor mass (%) of control (Gardner lymphosarcoma; 2 mg/kg s.c. 1x): 83%
Tumor mass, Arithm. mean (Gardner lymphosarcoma; 2 mg/kg s.c. 1x): 5.19 g
Tumor mass (%) of control (Gardner lymphosarcoma; 4 mg/kg s.c. 1x): 59%
Tumor mass, Arithm. mean (Gardner lymphosarcoma; 4 mg/kg s.c. 1x): 3.68 g
Tumor mass (%) of control (Gardner lymphosarcoma; 8 mg/kg s.c. 1x): 26%
Tumor mass, Arithm. mean (Gardner lymphosarcoma; 8 mg/kg s.c. 1x): 1.64 g
